Our source for the EC50 and Emax values is patent publication US20230159509A1 (Amathus Therapeutics, Inc., priority 2020, published 2023).

Structures are written as SMILES. Bounds are passed on as bounds.

The target of this assay is T1, TRAP1 enzyme (Homo sapiens, UniProt Q12931).
T1 construct: 150 nM Trap1 enzyme was incubated with various concentrations of the test compound
T1 sequence (Q12931 60-704): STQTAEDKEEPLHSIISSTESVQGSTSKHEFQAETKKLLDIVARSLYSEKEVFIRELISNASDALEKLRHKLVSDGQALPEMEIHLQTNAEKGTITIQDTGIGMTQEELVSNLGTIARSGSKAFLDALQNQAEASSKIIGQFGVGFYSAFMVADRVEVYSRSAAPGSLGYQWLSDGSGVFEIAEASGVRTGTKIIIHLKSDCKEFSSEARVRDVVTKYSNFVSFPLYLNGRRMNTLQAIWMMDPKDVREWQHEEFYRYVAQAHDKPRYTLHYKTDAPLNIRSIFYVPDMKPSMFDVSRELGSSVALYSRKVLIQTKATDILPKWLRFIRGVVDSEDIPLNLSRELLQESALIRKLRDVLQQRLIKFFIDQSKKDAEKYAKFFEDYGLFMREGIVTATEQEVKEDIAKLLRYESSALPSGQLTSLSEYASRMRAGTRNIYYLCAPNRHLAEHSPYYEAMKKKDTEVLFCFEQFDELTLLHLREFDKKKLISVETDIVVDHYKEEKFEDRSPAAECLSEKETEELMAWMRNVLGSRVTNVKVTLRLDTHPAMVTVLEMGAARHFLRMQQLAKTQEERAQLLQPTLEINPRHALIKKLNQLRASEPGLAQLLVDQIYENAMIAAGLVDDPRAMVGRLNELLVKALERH
The assay is described as follows: ADP Glo assay of TRAP1 ATPase activity. The assay is classed as biochemical. The settings on record: for EC50: concentration for half maximal activation, read-out: ADP GLO DRC: GeoMean EC50; for Emax: maximal percent activation, read-out: ADP GLO DRC: Mean Emax. The gist of the method:
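Compound (0.79–100 μM) was preincubated 30 min at 37° C with 150 nM TRAP1 in 25 mM Pipes pH 7.5, 40 mM KCl, 0.05 mM MgCl2. Reaction started with 20 μM ATP, 60 min at 37° C. ADP measured by luminescence against a standard curve; activation fitted sigmoidally for EC50 and Emax.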
(In general: In ADP-Glo the light output rises with the ADP produced.)

Turning to `COc1ncc(NC(=O)c2ccnc(Br)c2)cc1S(=O)(=O)Nc1c(C)cccc1C` [compound 1935, 1,2-bromo-N-(5-(N-(2,6-dimethylphenyl)sulfamoyl)-6-methoxypyridin-3-yl)isonicotinamide], the EC50 (as a rule, the concentration giving half of the maximal effect) was 20 to 100 µM and the Emax (commonly the size of the effect at its maximum, as opposed to the concentration needed) was 200 to 300%.

As to `COc1ncc(NC(=O)c2coc(-c3ccc(F)cc3)n2)cc1S(=O)(=O)Nc1c(C)cc(F)cc1C` [compound 1937, N-(5-(N-(4-fluoro-2,6-dimethylphenyl)sulfamoyl)-6-methoxypyridin-3-yl)-2-(4-fluorophenyl) oxazole-4-carboxamide], the EC50 is under 10 µM and the Emax was in the range of 119 to 159%.

Take `COc1ncc(NC(=O)c2ccnc(-c3cccnc3)c2)cc1S(=O)(=O)Nc1c(C)cccc1C` [compound 1940, N-(5-(N-(2,6-dimethylphenyl)sulfamoyl)-6-methoxypyridin-3-yl)-[2,3′-bipyridine]-4-carboxamide]: the EC50 lay in the range of 10 to 20 µM and the Emax was over 300%.

On to `COc1ncc(NC(=O)c2coc(-c3ccccc3)n2)cc1S(=O)(=O)Nc1c(C)cccc1Cl` [compound 1941, N-(5-(N-(2-chloro-6-methylphenyl)sulfamoyl)-6-methoxypyridin-3-yl)-2-phenyloxazole-4-carboxamide], for which the EC50 is under 10 µM and the Emax was 160 to 199%.

In the case of `COc1ncc(NC(=O)c2cccc(-c3ccnn3C)c2)cc1S(=O)(=O)Nc1c(C)cccc1C` [compound 1942, N-(5-(N-(2,6-dimethylphenyl)sulfamoyl)-6-methoxypyridin-3-yl)-3-(1-methyl-1H-pyrazol-5-yl)benzamide], the EC50 lay in the range of 10 to 20 µM and the Emax is over 300%.

Regarding `COc1ncc(NC(=O)c2csc3c2C2CCN3CC2)cc1S(=O)(=O)Nc1ccc(Cl)cc1` [compound 1944, N-(5-(N-(4-chlorophenyl)sulfamoyl)-6-methoxypyridin-3-yl)-5,6-dihydro-4H-4,7-ethanothieno[2,3-b]pyridine-3-carboxamide], the EC50 is 10 to 20 µM and the maximal effect (Emax) fell in the range of 200 to 300%.

For `COc1ncc(NC(=O)c2csc3c2C2CCN3CC2)cc1S(=O)(=O)Nc1c(C)cccc1C` [compound 1946, N-(5-(N-(2,6-dimethylphenyl)sulfamoyl)-6-methoxypyridin-3-yl)-5,6-dihydro-4H-4,7-ethanothieno[2,3-b]pyridine-3-carboxamide], the EC50 was under 10 µM and the Emax lay in the range of 160 to 199%.

Take `COc1ncc(NC(=O)c2csc3c2CN(C(=O)OC(C)(C)C)CC3)cc1S(=O)(=O)Nc1c(C)cccc1C` [compound 1949, tert-butyl 3-((5-(N-(2,6-dimethylphenyl)sulfamoyl)-6-methoxypyridin-3-yl)carbamoyl)-6,7-dihydrothieno[3,2-c]pyridine-5(4H)-carboxylate]: the EC50 was under 10 µM and the Emax lay within 200 to 300%.

Regarding `COc1ncc(NC(=O)c2coc(-c3ccccc3)n2)cc1S(=O)(=O)Nc1ccc(F)cc1C` [compound 1950, N-(5-(N-(4-fluoro-2-methylphenyl)sulfamoyl)-6-methoxypyridin-3-yl)-2-phenyloxazole-4-carboxamide], the EC50 is under 10 µM and the Emax was 119 to 159%.

For `COc1ncc(NC(=O)c2csc(-c3ccccc3)n2)cc1S(=O)(=O)Nc1c(C)cccc1O` [compound 1953, N-(5-(N-(2-hydroxy-6-methylphenyl)sulfamoyl)-6-methoxypyridin-3-yl)-2-phenylthiazole-4-carboxamide], the EC50 fell in the range of 20 to 100 µM and the maximum response (Emax) was in the range of 119 to 159%.

Regarding `COc1ncc(NC(=O)c2csc(-c3ccccc3)n2)cc1S(=O)(=O)Nc1sccc1C` [compound 1954, N-(6-methoxy-5-(N-(3-methylthiophen-2-yl)sulfamoyl)pyridin-3-yl)-2-phenylthiazole-4-carboxamide], the EC50 fell in the range of 20 to 100 µM and the Emax fell in the range of 119 to 159%.

As for `COc1ncc(NC(=O)c2csc3c2CN(C)CC3)cc1S(=O)(=O)Nc1c(C)cccc1C` [compound 1956, N-(5-(N-(2,6-dimethylphenyl)sulfamoyl)-6-methoxypyridin-3-yl)-5-methyl-4,5,6,7-tetrahydrothieno[3,2-c]pyridine-3-carboxamide], the EC50 is 20 to 100 µM and the maximal effect (Emax) was in the range of 200 to 300%.

On to `COc1ncc(NC(=O)c2ncoc2C)cc1S(=O)(=O)Nc1ccc(Cl)cc1` [compound 1959, N-(5-(N-(4-chlorophenyl)sulfamoyl)-6-methoxypyridin-3-yl)-5-methyloxazole-4-carboxamide], for which the EC50 is 10 to 20 µM and the Emax is 160 to 199%.

Take `COc1ncc(NC(=O)c2coc(-c3ccccc3)n2)cc1S(=O)(=O)Nc1c(Cl)cccc1C(F)(F)F` [compound 1962, N-(5-(N-(2-chloro-6-(trifluoromethyl)phenyl)sulfamoyl)-6-methoxypyridin-3-yl)-2-phenyloxazole-4-carboxamide]: the EC50 fell in the range of 20 to 100 µM and the Emax lay within 160 to 199%.

Turning to `COc1ncc(NC(=O)c2coc(-c3ccccc3)n2)cc1S(=O)(=O)Nc1c(C)cc(C#N)cc1C` [compound 1965, N-(5-(N-(4-cyano-2,6-dimethylphenyl)sulfamoyl)-6-methoxypyridin-3-yl)-2-phenyloxazole-4-carboxamide], the EC50 is under 10 µM and the maximum response (Emax) is 119 to 159%.

`COc1ncc(NC(=O)c2coc(-c3ccccc3)n2)cc1S(=O)(=O)Nc1ncc(Cl)cc1C` [compound 1966, N-(5-(N-(5-chloro-3-methylpyridin-2-yl)sulfamoyl)-6-methoxypyridin-3-yl)-2-phenyloxazole-4-carboxamide]: the EC50 was 20 to 100 µM and the maximal effect (Emax) lay within 160 to 199%.

With `COc1ncc(NC(=O)c2csc(-c3ccccc3)n2)cc1S(=O)(=O)Nc1c(C(F)(F)F)cccc1C(F)(F)F` [compound 1970, N-(5-(N-(2,6-bis(trifluoromethyl)phenyl)sulfamoyl)-6-methoxypyridin-3-yl)-2-phenylthiazole-4-carboxamide], the concentration giving a half-maximal response (EC50) was in the range of 10 to 20 µM and the Emax lay in the range of 200 to 300%.

Regarding `COc1ncc(NC(=O)c2csc3c2CNCC3)cc1S(=O)(=O)Nc1c(C)cccc1C` [compound 1972, N-(5-(N-(2,6-dimethylphenyl)sulfamoyl)-6-methoxypyridin-3-yl)-4,5,6,7-tetrahydrothieno[3,2-c]pyridine-3-carboxamide], the EC50 was in the range of 20 to 100 µM and the Emax is 160 to 199%.

In the case of `COc1ncc(NC(=O)c2coc(-c3ccccc3)n2)cc1S(=O)(=O)Nc1ncc(Cl)cc1F` [compound 1977, N-(5-(N-(5-chloro-3-fluoropyridin-2-yl)sulfamoyl)-6-methoxypyridin-3-yl)-2-phenyloxazole-4-carboxamide], the EC50 is 20 to 100 µM and the Emax was in the range of 200 to 300%.

In the case of `COc1ncc(NC(=O)c2csc(-c3ccccc3)n2)cc1S(=O)(=O)Nc1c(C)csc1C` [compound 1985, N-(5-(N-(2,4-dimethylthiophen-3-yl)sulfamoyl)-6-methoxypyridin-3-yl)-2-phenylthiazole-4-carboxamide], the EC50 is under 10 µM and the maximal effect (Emax) is 160 to 199%.

`COc1ncc(NC(=O)c2coc(-c3ccccc3)n2)cc1S(=O)(=O)Nc1c(C)cccc1C1CC1` [compound 1986, N-(5-(N-(2-cyclopropyl-6-methylphenyl)sulfamoyl)-6-methoxypyridin-3-yl)-2-phenyloxazole-4-carboxamide]: the EC50 was under 10 µM and the Emax is 200 to 300%.

On to `COc1ccc(F)cc1C(=O)Nc1cnc(OC)c(S(=O)(=O)Nc2c(C)cccc2C)c1` [compound 1990, N-(5-(N-(2,6-dimethylphenyl)sulfamoyl)-6-methoxypyridin-3-yl)-5-fluoro-2-methoxybenzamide], for which the EC50 was 10 to 20 µM and the Emax was in the range of 200 to 300%.

For the compound `COc1ncc(NC(=O)c2coc(-c3ccccc3)n2)cc1S(=O)(=O)Nc1ccc(F)c(F)c1C` [compound 2000], the EC50 lay within 10 to 20 µM and the Emax was 200 to 300%.

As to `COc1ncc(NC(=O)c2coc(-c3ccccc3)n2)cc1S(=O)(=O)Nc1cc(F)c(F)cc1C` [compound 2002], the concentration for a half-maximal effect (EC50) fell in the range of 10 to 20 µM and the Emax is 160 to 199%.

Turning to `COc1ncc(NC(=O)c2csc(-c3ccccc3)n2)cc1S(=O)(=O)Nc1ccccc1CO` [compound 2004], the EC50 was 10 to 20 µM and the maximal response (Emax) lay within 160 to 199%.

With `COc1ncc(NC(=O)c2csc(-c3ccccc3)n2)cc1S(=O)(=O)Nc1ccc(C(F)(F)F)cn1` [compound 2005], the EC50 lay within 20 to 100 µM and the Emax fell in the range of 119 to 159%.

In the case of `COc1ncc(NC(=O)c2csc(-c3ccccc3)n2)cc1S(=O)(=O)Nc1c(C#N)cccc1C(F)(F)F` [compound 2068], the 50% effective concentration (EC50) lay within 20 to 100 µM and the maximal effect (Emax) lay in the range of 200 to 300%.

As for `COc1ncc(NC(=O)c2csc(-c3ccccc3)n2)cc1S(=O)(=O)Nc1ncc(C(F)(F)F)cn1` [compound 2069], the EC50 lay in the range of 20 to 100 µM and the maximum response (Emax) fell in the range of 200 to 300%.
